Experimental data: US20050059720A1, “Medicinal compositions for the prevention or treatment of cardiac failure” (SANKYO COMPANY, LIMITED, priority 2000, published 2005)

Test system: Ventricular Cells in the Area Adjacent to Infarction
Assay: Suppression of hypertrophy of ventricular cells in the area adjacent to infarction (coronary artery ligation)
Assay type: in vivo, Wistar rats
Conditions: rats, 4 weeks administration after coronary ligation; pravastatin 5 mg/kg/day, CS-866 2 mg/kg/day; normal 2,737, control 3,812

CC[C@H](C)C(=O)O[C@H]1C[C@H](O)C=C2C=C[C@H](C)[C@H](CC[C@@H](O)C[C@@H](O)CC(=O)O)[C@H]21 [pravastatin, (+)-(3R,5R)-3,5-dihydroxy-7-[(1S,2S,6S,8S,8aR)-6-hydroxy-2-methyl-8-[(S)-2-methylbutyryloxy]-1,2,6,7,8,8a-hexahydro-1-naphthyl]heptanoic acid]
Mass of cardiac muscle cells in adjacent area to the infarction: 3,053 μm^2
